Results reported in patent US20110136108A1, “XBP1(S) Protein Acting as an Adipocyte Differentiation Marker Having a Facility to Regulate Differentiation into Adipocytes, and an Application Therefor” (CATHOLICE UNIVERSITY INDUSTRY ACADEMIC COOPERATION …, priority 2008, published 2011).

Tested on: PPARγ2 mRNA
Test: PPARγ2 mRNA expression during adipocyte differentiation (real-time PCR)
Assay type: cell-based, mouse
Conditions: SFG-xbp1i cells, 50 μM rosiglitazone in induction medium
Protocol: From the cells subjected to differentiation, total RNA was isolated by chloroform extraction and ethanol precipitation (TRIzol Reagent, Invitrogen, Carlsbad, Calif.). Thereafter, the total RNA was used to synthesize cDNA by RT-PCR (M-MLV reverse transcriptase, Promega, MADISON, Wis.). Real-time PCR was performed using a fluorescent probe of SYBR Green (SYBR Green QPCR Master Mix (2×), TAKARA, JAPAN), with cDNA serving as a template. Relative mRNA expression levels were calculated using a comparative Ct method.
In this regard, XBP1(S) expression-knock-down 3T3-L1 precursor cells (SFG-xbp1i) were induced to differentiate into adipocytes in the presence of 0 or 50 μM rosiglitazone in an induction medium during which the relative expression levels of PPARγ2 mRNA were measured.

Compound: CN(CCOc1ccc(CC2SC(=O)NC2=O)cc1)c1ccccn1 (stereo not shown) [rosiglitazone]
- expression level of PPARγ2 mRNA relative to absence of rosiglitazone: 20 times
